From ChEMBL document CHEMBL1150691, “New lysophosphatidylcholines and monoglycerides from the marine sponge Stelletta sp” (2003)
In brackets after ≈: the same amount, converted by molar mass.

Key:
Type in all cases: functional
Conditions in all cases: read-out: ED50 (the source's name)
HCT-15 = experiment: Cytotoxicity against human HCT15 cells
SK-MEL-2 = experiment: Cytotoxicity against human SK-MEL-2 cells
A549 = experiment: Cytotoxicity against human A549 cells
SK-OV-3 = experiment: Cytotoxicity against human SKOV3 cells
XF498 = experiment: Cytotoxicity against human XF498 cells

## CC(C)CCCCCCCCCC(C)C(=O)OC[C@@H](O)CO (stereo not given in full)
HCT-15
  EC50: 18.6 µg/mL (≈ 58.8 µM)
SK-MEL-2
  EC50: 21.8 µg/mL (≈ 68.9 µM)
A549
  EC50: 20 µg/mL (≈ 63.2 µM)
SK-OV-3
  EC50: 38.9 µg/mL (≈ 123 µM)
XF498
  EC50: 30.7 µg/mL (≈ 97 µM)

## CC(C)CCCCCCCCCCCCC/C=C\CCCC(=O)OC[C@@H](O)CO
HCT-15
  EC50: > 30 µg/mL
SK-MEL-2
  EC50: > 30 µg/mL
A549
  EC50: > 30 µg/mL
SK-OV-3
  EC50: > 30 µg/mL
XF498
  EC50: > 30 µg/mL

## CC(C)CCCCCCCCCCCC/C=C\CC/C=C\CCCC(=O)OC[C@@H](O)CO
HCT-15
  EC50: > 30 µg/mL
SK-MEL-2
  EC50: > 30 µg/mL
A549
  EC50: > 30 µg/mL
SK-OV-3
  EC50: > 30 µg/mL
XF498
  EC50: > 30 µg/mL

## C=CCCCCC(C)CCC/C=C\C#CCC[C@H](OC)C(=O)OC[C@@H](O)COP(=O)([O-])CC[N+](C)(C)C (stereo not given in full)
HCT-15
  EC50: 15.1 µg/mL (≈ 27.8 µM)
SK-MEL-2
  EC50: 9.1 µg/mL (≈ 16.7 µM)
A549
  EC50: 11.8 µg/mL (≈ 21.7 µM)
SK-OV-3
  EC50: 14.5 µg/mL (≈ 26.7 µM)
XF498
  EC50: 13.6 µg/mL (≈ 25 µM)

## C=CCCCCC(C)CCC/C=C\C#CCC[C@H](OC)C(=O)OC[C@@H](O)CO (stereo not given in full)
HCT-15
  EC50: > 30 µg/mL
SK-MEL-2
  EC50: > 30 µg/mL
A549
  EC50: 31.3 µg/mL (≈ 79.3 µM)
SK-OV-3
  EC50: > 30 µg/mL
XF498
  EC50: 42.5 µg/mL (≈ 108 µM)

## COC(=O)CCCCCCCCCCCCCCCCO
HCT-15
  EC50: > 30 µg/mL
SK-MEL-2
  EC50: > 30 µg/mL
A549
  EC50: > 30 µg/mL
SK-OV-3
  EC50: > 30 µg/mL
XF498
  EC50: > 30 µg/mL

## COC(=O)CCCCCCCCCCCCCCO
HCT-15
  EC50: 16.5 µg/mL (≈ 60.6 µM)
SK-MEL-2
  EC50: > 30 µg/mL
A549
  EC50: 25.9 µg/mL (≈ 95.1 µM)
SK-OV-3
  EC50: 35.7 µg/mL (≈ 131 µM)
XF498
  EC50: > 30 µg/mL

## COc1cccc2c1C(=O)c1c(O)c3c(c(O)c1C2=O)C[C@@](O)(C(=O)CO)C[C@@H]3O[C@H]1C[C@H](N)[C@H](O)[C@H](C)O1 [DOXORUBICIN]
HCT-15
  EC50: 0.29 µg/mL (≈ 0.534 µM)
SK-MEL-2
  EC50: 0.06 µg/mL (≈ 0.11 µM)
A549
  EC50: 0.03 µg/mL (≈ 0.0552 µM)
SK-OV-3
  EC50: 0.13 µg/mL (≈ 0.239 µM)
XF498
  EC50: 0.19 µg/mL (≈ 0.35 µM)

## CC(C)CCCCCCCCCC(C)C(=O)OC[C@@H](O)COP(=O)([O-])CC[N+](C)(C)C (stereo not given in full) [STELLETTACHOLINE B]
HCT-15
  EC50: 26.9 µg/mL (≈ 57.8 µM)
SK-MEL-2
  EC50: 6.3 µg/mL (≈ 13.5 µM)
A549
  EC50: 7.4 µg/mL (≈ 15.9 µM)
SK-OV-3
  EC50: 4.8 µg/mL (≈ 10.3 µM)
XF498
  EC50: 24.1 µg/mL (≈ 51.8 µM)
